We go through 5 compounds from ChEMBL document CHEMBL5528003 (Eur J Med Chem, 2024).

One data set has as its target T1, Estrogen receptor (Homo sapiens, UniProt P03372).
T1 sequence (P03372 whole entry): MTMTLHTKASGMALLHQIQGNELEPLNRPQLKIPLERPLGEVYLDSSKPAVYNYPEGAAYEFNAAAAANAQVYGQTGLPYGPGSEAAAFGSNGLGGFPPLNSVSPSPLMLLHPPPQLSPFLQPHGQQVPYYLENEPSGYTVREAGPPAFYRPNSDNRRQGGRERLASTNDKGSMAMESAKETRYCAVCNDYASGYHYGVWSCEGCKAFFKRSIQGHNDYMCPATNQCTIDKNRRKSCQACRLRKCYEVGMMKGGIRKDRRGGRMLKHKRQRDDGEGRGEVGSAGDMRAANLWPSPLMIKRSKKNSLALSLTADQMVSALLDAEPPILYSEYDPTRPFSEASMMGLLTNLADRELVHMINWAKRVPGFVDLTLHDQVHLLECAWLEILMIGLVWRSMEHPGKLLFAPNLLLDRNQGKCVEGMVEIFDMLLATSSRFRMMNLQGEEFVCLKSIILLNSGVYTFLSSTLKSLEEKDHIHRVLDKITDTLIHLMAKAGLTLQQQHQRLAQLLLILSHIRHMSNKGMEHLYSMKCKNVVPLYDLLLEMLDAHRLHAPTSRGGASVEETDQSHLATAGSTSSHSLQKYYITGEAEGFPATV
As to the kind of experiment: Induction of Estrogen receptor degradation in wildtype human MCF7 cells assessed as reduction in estrogen receptor level incubated for 24 hrs by Western blot analysis. The data set is classed as cell-based.

The nature of data set [1]: Metabolic stability in human liver microsomes assessed as parent compound remaining incubated for 60 mins in presence of NADPH by LC-MS/MS analysis. The data set is classed as ADME, Microsome. Particulars: read-out: Stability. In general terms: Liver microsomes are a subcellular fraction often used to study metabolism.
Data set [2] can be described thus: Metabolic stability in rat liver microsomes assessed as parent compound remaining incubated for 60 mins in presence of NADPH by LC-MS/MS analysis. Format: ADME, Microsome. To be noted: read-out: Stability.
The subject of a further data set is MCF7. Kind of data set: Antiproliferative activity against wildtype human MCF7 cells assessed as inhibition of cell proliferation incubated for 6 days in presence of beta-estradiol by CellTiter-Glo assay. Format: functional, cell-based. Particulars: MCF7, 144 h. (ATP-based viability assays read luminescence as a measure of living cells.)

As a reminder, the DC50 is the concentration giving 50% degradation. One may read the IC50 as the concentration needed to halve the response being measured.

On to `C[C@@H]1Cc2c([nH]c3ccccc23)[C@@H](c2c(F)cc(NC3CN(CCOCCCC(F)(F)C(F)(F)F)C3)cc2F)N1CC(F)(F)CO`, for which the DC50 on Estrogen receptor worked out at 3.8 nM.

Consider `C[C@@H]1Cc2c([nH]c3ccccc23)[C@@H](c2c(F)cc(OC3CN(CC[S+]([O-])CCCC(F)(F)C(F)(F)F)C3)cc2F)N1CC(F)(F)F` (stereo partly drawn), for which the values for the remaining at 1 h in data set [1] and in data set [2] were 24.9% and 53.7%, respectively.

Take `C[C@@H]1Cc2c([nH]c3ccccc23)[C@@H](c2c(F)cc(NC3CN(CCC[S+]([O-])CCCC(F)(F)C(F)(F)F)C3)cc2F)N1CC(F)(F)CO` (stereo partly drawn): the remaining at 1 h was 60.1% in data set [1] and 79.3% in data set [2]. The DC50 on Estrogen receptor stood at 1.2 nM. In the data set with MCF7, the IC50 stood at 0.9 nM.

Turning to `C[C@@H]1Cc2c([nH]c3ccccc23)[C@@H](c2c(F)cc(NC3CN(CCC[S+]([O-])CCCC(F)(F)C(F)(F)F)C3)cc2F)N1CC(F)(F)F` (stereo partly drawn), the results for the remaining at 1 h in data set [1] and in data set [2] were 57.4% and 93.7%, respectively. Also, the DC50 on Estrogen receptor is 1.7 nM. Also, the IC50 in the data set on MCF7 turned out to be 2.7 nM.

For `C[C@@H]1Cc2c([nH]c3ccccc23)[C@@H](c2c(F)cc(NC3CN(CC[S+]([O-])CCCC(F)(F)C(F)(F)F)C3)cc2F)N1CC(F)(F)CO` (stereo partly drawn), the remaining at 1 h in data set [1] amounted to 29.1%; in data set [2] it was 78%.
